{
  "source": "patent EP4796540A2",
  "about": "“N-SULFONAMIDE NITROGEN-CONTAINING FUSED HETEROCYCLIC COMPOUND, AND APPLICATION THEREOF” (priority 2023, dated 2025)",
  "key": {"[1]": {"test_system": "p53 Y220C mutant", "assay": "HTRF assay: compounds promoting the binding of p53 Y220C mutant with DNA", "assay_type": "biochemical", "conditions": "His-tagged p53 Y220C (94-312), biotin-labeled DNA", "procedure": "Homogeneous time-resolved fluorescence (HTRF) assay was used to measure the reactivation effect of compounds on the p53 Y220C mutant. The recombinant His-tagged p53 Y220C (94-312) used for HTRF assays was expressed in E. coli and purified to the purity of 90% through Ni-NTA column. The biotin-labeled DNA used for HTRF assays was synthesized by Pharmaron Inc, with the specific sequence of 5'-[…]-3' .\nThe binding of recombinant His-tagged p53 Y220C protein and biotin-labeled DNA was measured using fluorescence resonance energy transfer (FRET). For FRET assays, binding between p53 mutants and DNA sequences was measured by detecting the fluorescence of the interaction between an anti-His antibody (Cisbio, 61HI2KLA) conjugated to Eu and d2-conjugated streptavidin (Cisbio, 610SADLF) bound to a biotin-labeled DNA molecule. Compounds were prepared into 2 mM stock solutions and serially diluted into 10 concentrations at a 1:3 ratio in DMSO. Each 200-fold working concentration compound was sequentially diluted to 4-fold working concentration. 4 µL of compound solution was transferred line by line to a 384-well assay plate using Echo, containing 2 replicates per column. 4 µL of p53 solution was added to the assay plate. 4 µL of biotin DNA solution was added to the assay plate, and then 4 µL of assay solution (His-Eu antibody and streptavidin-d2) was added to each well of the assay plate. The assay plate was incubated overnight and protected from light. Fluorescence was read on BMG (BMG LRBTECH).\nThe ratio of each well was calculated (ratio_665 nm/615 nm-ratio_background). The activity % was calculated as follows: C = (Ave_Ac−Ave_Ba)/(Ave_Dc_Ave_Bd) [formula] R data = (A−Ave_Ba−C*D)/(D−Ave_Bd)*(Ave_Dc−Ave_Bd) [formula] Activity % = R data/Ave_VC*100. [formula] • A: fluorescence intensity of the sample at 665 nm; • D: fluorescence intensity of the sample at 615 nm; • Ba: fluorescence intensity of the plate background at 665 nm; • Bd: fluorescence intensity of the plate background at 615 nm; • Dc: fluorescence intensity of HIS-Eu background at 615 nm; • Ac: fluorescence intensity of streptavidin-d2 background at 665 nm; • VC: DMSO treatment group.\nSC150 was calculated using Graphpad 8.0 to fit the logarithm of activity% and compound concentration to a nonlinear regression (dose response-variable slope). Table 1: Activity of compounds promoting the binding of p53 Y220C mutant with DNA"}, "[2]": {"test_system": "human gastric cancer NUGC-3 xenograft", "assay": "In vivo efficacy study in human gastric cancer NUGC-3 xenograft rat model", "set-up": "species or system B-Rag2/IL2rg KO SD rats", "conditions": "QD × 28 days, p.o., rats", "procedure": "1. Experimental purpose: To test the in vivo anti-tumor activity of compounds in the subcutaneous human gastric cancer NUGC-3 xenograft model in female B-Rag2/IL2rg KO SD rats. 2. Experimental materials: Animals: 7 to 9 weeks old female B-Rag2/IL2rg KO SD rats; Reagents:\nVehicle: 5% DMSO/10% Solutol HS 15/85% pH 4.65 ± 0.10 acetate buffer;\nCell culture: NUGC-3 cells were cultured in RPMI-1640 medium containing 10% FBS.\nMolding and grouping: NUGC-3 cells in the exponential growth phase (1 × 10^7) were harvested, resuspended in 0.2 mL of PBS and Matrigel (1:1), and then inoculated subcutaneously into the right flank of B-Rag2/IL2rg KO SD rats to establish a subcutaneous xenograft model. Rats were observed daily for healthy status and tumor growth after cell inoculation. On the 10th day after inoculation, 24 animals were selected, grouped, and the tumor volume of the animals in the group was approximately 199.0 mm^3. The study was divided into 4 groups, with 6 rats in each group, and the administration was performed on the same day (see Table 12).\n4. Experimental design: Table 12 is the grouping and administration information for the efficacy study. Rats in the G1 group were orally administered vehicle control (5% DMSO/10% Solutol HS 15/85% pH 4.65 ± 0.10 acetate buffer) once a day for a total of 28 days. Rats in the G2 group were orally administered Cpd-2 once a day at a dose of 6.25 mg/kg for a total of 28 days. Rats in the G3 group were orally administered Cpd-2 once a day at a dose of 12.5 mg/kg for a total of 28 days. Rats in the G4 group were orally administered Cpd-2 once a day at a dose of 25 mg/kg for a total of 28 days. Table 12. In vivo efficacy study design of NUGC-3 xenograft rat model\nExperimental observation: The health status and mortality of the animals were monitored daily. Routine checks included the effect of tumor growth and drug treatment on animals' normal behavior such as mobility, food and water consumption, body weight gain/loss, eye/hair matting and any other abnormal effect. The number of deaths and side effects of the animals in the group were recorded based on the number of the animals in each group. Clinical symptoms observed during the trial were recorded in the raw data. Tumor volume calculation formula: Tumor volume (mm^3) = 0.5 × (tumor long diameter × tumor short diameter^2). During the research process, the entire administration process as well as tumor and body weight measurements were conducted in a Laminar Flow Cabinet.\nData processing: Percentage of tumor growth inhibition TGITV (%): TGITV % = (1 - ΔT/ΔC) × 100%; Wherein ΔC is the tumor volume Ct - C0 for the control group, C0 is the average tumor volume of the control group at the time of grouping, and Ct is the average tumor volume of the control group after treatment; ΔT is the tumor volume Tt - T0 for the treatment group, T0 is the average tumor volume of the treatment group at the time of grouping, and Tt is the average tumor volume of the treatment group after treatment.\nStatistical analysis: Tumor volume and animal body weight results are expressed in Mean ± SEM. Tumor volumes between different groups were statistically compared and analyzed. All statistical analyses were completed in https://d2k.bio/Efficacy/Invivo. The wilcox.test nominal method was used to compare whether there was a significant difference in tumor volume or tumor weight between groups, where p ≥ 0.05 was considered as having no significant difference, p < 0.05 was considered as having a significant difference, and p < 0.01 was considered as having an extremely significant difference."}},
  "note": "Values joined by “and” are separate entries in the source; they are usually repeats but may differ in a detail not shown here. Identical values can stand only once.",
  "data": [
    {"smiles": "[2H]C([2H])([2H])Oc1nc(C(=O)NS(C)(=O)=O)ccc1NCC#Cc1cc2c(N[C@@H]3CCN(C)C[C@@H]3F)cccn2c1CC(F)(F)F", "note": "[Cpd-2, 5-((3-(8-(((3S,4R)-3-Fluoro-1-methylpiperidin-4-yl)amino)-3-(2,2,2-trifluoroethyl)indolizin-2-yl)prop-2-yn-1-yl)amino)-6-(methoxy-d3)-N-(methylsulfonyl)picolinamide]", "values": [
      {"measurement": "SC150", "setting": "[1]", "result": 0.58, "unit": "nM"},
      {"measurement": "TGITV (%) (at 28 days)", "setting": "[2]; 6.25 mg/kg", "result": 92.9, "unit": "%"},
      {"measurement": "Tumor volume (mm^3) (Mean ± SEM) (at 28 days)", "setting": "[2]; 6.25 mg/kg", "result": "395.0 mm^3 and 395.0 ± 63.1 mm^3"},
      {"measurement": "TGITV (%) (at 28 days)", "setting": "[2]; 12.5 mg/kg", "result": 102.9, "unit": "%"},
      {"measurement": "Tumor volume (mm^3) (Mean ± SEM) (at 28 days)", "setting": "[2]; 12.5 mg/kg", "result": "119.2 mm^3 and 119.2 ± 10.2 mm^3"},
      {"measurement": "TGITV (%) (at 28 days)", "setting": "[2]; 25 mg/kg", "result": 104.7, "unit": "%"},
      {"measurement": "Tumor volume (mm^3) (Mean ± SEM) (at 28 days)", "setting": "[2]; 25 mg/kg", "result": "70.1 mm^3 and 70.1 ± 14.9 mm^3"}
    ]}
  ]
}
